Laboratory results reported in ChEMBL document CHEMBL1201862, “PubChem BioAssay data set” (2004).
Calls of active or inactive are those of the source.

Assays:
[1] = target: Mu-type opioid receptor (Homo sapiens, UniProt P35372); test: (§1) Counterscreen for agonists of heterodimerization of the mu 1 (OPRM1) and delta 1 (OPRD1) opioid receptors: Luminescence-based cell-based high throughput dose response assay to identify agonists of OPRM1 homodimerization.; assay type: functional
[2] = target: 5-hydroxytryptamine receptor 5A (Homo sapiens, UniProt P47898); test: Counterscreen for agonists of OPRM1-OPRD1 heterodimerization: luminescence-based cell-based high throughput dose response assay to identify agonists of 5-hydroxytryptamine (serotonin) 5A receptor (HTR5A). [Related pubchem assays (depositor defined):AID504326, AID504355, AID504692, AID504904, AID504905]; assay type: functional
[3] = target: T1, Short transient receptor potential channel 4 (Mus musculus, UniProt Q9QUQ5); test: mouse TRPC4 channel activators, dose response, cell-based, HEK293 TRPC4/mu-opioid, Fluo-4 calcium (AID 434937); assay type: functional
T1 sequence (Q9QUQ5 whole entry): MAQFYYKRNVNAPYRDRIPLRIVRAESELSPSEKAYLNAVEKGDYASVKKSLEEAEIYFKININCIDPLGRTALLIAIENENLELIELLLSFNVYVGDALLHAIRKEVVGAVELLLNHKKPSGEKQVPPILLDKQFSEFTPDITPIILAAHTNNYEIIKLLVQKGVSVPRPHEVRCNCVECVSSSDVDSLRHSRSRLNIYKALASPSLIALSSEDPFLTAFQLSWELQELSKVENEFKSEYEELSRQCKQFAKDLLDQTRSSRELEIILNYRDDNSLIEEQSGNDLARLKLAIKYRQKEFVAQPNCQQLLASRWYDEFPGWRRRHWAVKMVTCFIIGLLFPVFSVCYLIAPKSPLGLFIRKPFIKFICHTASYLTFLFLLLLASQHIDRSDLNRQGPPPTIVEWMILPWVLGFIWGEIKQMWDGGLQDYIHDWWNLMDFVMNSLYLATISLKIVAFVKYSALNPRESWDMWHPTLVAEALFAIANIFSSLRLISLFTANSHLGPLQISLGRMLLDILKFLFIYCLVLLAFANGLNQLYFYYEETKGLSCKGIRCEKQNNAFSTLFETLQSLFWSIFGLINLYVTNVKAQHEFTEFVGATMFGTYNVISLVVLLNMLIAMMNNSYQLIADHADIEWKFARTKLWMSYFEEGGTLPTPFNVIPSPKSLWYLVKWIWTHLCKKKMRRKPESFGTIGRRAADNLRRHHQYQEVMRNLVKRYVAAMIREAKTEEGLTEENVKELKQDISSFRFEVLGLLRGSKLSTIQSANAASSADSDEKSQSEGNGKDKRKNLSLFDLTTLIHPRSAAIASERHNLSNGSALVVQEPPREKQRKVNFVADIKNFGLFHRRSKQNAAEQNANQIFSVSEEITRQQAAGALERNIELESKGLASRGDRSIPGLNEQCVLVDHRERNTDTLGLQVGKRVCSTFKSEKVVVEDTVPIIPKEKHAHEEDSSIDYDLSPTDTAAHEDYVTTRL

[4] = target: Delta-type opioid receptor (Homo sapiens, UniProt P41143); test: as §1, with “of OPRD1” for “of OPRM1”, “homodimerization. [Related pubchem assays (depositor defined):AID504326, AID504355, AID504692, AID504904, AID504905]” for “homodimerization.”; assay type: functional
[5] = target: T2, CAAX prenyl protease 2 (Saccharomyces cerevisiae S288c, UniProt Q03530); assay type: biochemical
T2 sequence (Q03530 whole entry): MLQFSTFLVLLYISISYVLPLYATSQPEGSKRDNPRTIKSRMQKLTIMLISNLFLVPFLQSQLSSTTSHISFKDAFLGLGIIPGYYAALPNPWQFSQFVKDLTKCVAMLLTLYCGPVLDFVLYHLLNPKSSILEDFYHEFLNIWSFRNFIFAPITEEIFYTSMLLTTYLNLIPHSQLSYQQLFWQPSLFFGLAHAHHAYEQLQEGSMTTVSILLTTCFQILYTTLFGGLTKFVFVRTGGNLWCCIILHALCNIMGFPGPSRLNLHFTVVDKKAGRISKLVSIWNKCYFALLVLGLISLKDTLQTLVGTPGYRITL

[6] = target: T3, Endoribonuclease toxin MazF (Escherichia coli K-12, UniProt P0AE70); test: fluorescent RNA oligo signal without MazF, dose response, counter-screen for MazEF activator project, biochemical, fluorescence, single-stranded RNase substrate (AID 588502); assay type: functional
T3 sequence (P0AE70 whole entry): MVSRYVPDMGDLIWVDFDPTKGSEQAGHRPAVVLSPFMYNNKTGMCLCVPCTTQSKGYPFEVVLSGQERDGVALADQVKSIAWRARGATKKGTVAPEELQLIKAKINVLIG

[7] = target: Trypsin (Sus scrofa, UniProt P00761); test: porcine trypsin inhibitors, dose response, selectivity assay for Rce1 protease inhibitor project, biochemical, quenched peptide fluorescence, cherry-pick (AID 488789)
[8] = target: CAAX prenyl protease 1 (Saccharomyces cerevisiae S288c, UniProt P47154); test: Ste24 protease inhibitors, dose response, biochemical, S. cerevisiae, plate reader, cherry-pick (AID 488815)
[9] = target: Melanocortin receptor 4 (Homo sapiens, UniProt P32245); assay type: functional, cell-based;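 also: Cell-based assay with luminescence read-out, confirmatory dose-response testing for agonist activity of biased ligands at MC4R; human U2OS cells with tagged receptor and beta-arrestin; potency of agonists that increase receptor coupling to beta-arrestin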
[10] = target: T3, Endoribonuclease toxin MazF; test: MazF toxin RNase activators, dose response, biochemical, fluorescence, single-stranded RNA substrate, uHTS hits (AID 588481); assay type: functional
[11] = target: CAAX prenyl protease 2 (Homo sapiens, UniProt Q9Y256); test: human Rce1 protease inhibitors, dose response, biochemical, yeast membranes, quenched-peptide fluorescence, cherry-pick (AID 588849)
[12] = test system: Vero; test: Vero E6 cell cytotoxicity, dose response, cytotoxicity control (AID 540298); assay type: functional; settings: Chlorocebus sabaeus
[13] = test system: MDCK; test: MDCK cell cytotoxicity, dose response, cytotoxicity control (AID 540296); assay type: functional; settings: Canis lupus familiaris
[14] = target: Nonstructural protein 1 (Influenza A virus, UniProt Q194T2); assay type: functional, Influenza A virus (A/California/07/2009(H1N1))
[15] = test system: MDCK; test: antiviral activity against H1N1 influenza, dose response, cell-based, strain KY136 (AID 540257); assay type: functional; settings: Canis lupus familiaris
[16] = test system: HEK293; test: cells; settings: Homo sapiens
[17] = inhibitors of intracellular T. cruzi replication, confirmation, NIH3T3 host cells, beta-gal luminescence (AID 2044); assay type: functional, cell-based;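 also: intracellular parasites grown in NIH/3T3 mouse fibroblasts as host cells; luminescent beta-galactosidase reporter signal from transgenic T. cruzi replicating inside host cells; inhibitors lower the luminescence signal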
[18] = test system: HEK293; test: cells; settings: Homo sapiens; remark: listed apart in the source
[19] = cytotoxicity toward NIH3T3 fibroblasts, dose response, counter-screen, cell-based, ATP luminescence, mouse fibroblasts (AID 2010); assay type: functional;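 also: cells exposed to compound for about 90 hours before reading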
[20] = test system: A-375; test: MITF: Counter assay: A375 proliferation Measured in Cell-Based System Using Plate Reader - 2084-03_Inhibitor_Dose_DryPowder_Activity. [Related pubchem assays (depositor defined):AID488944]; assay type: functional; settings: Homo sapiens
[21] = test system: A-375; test: A375 melanoma cell viability reduction, dose response, counter-screen for MITF modulator project, cherry-pick samples, set 2 (AID 540335); assay type: functional, cell-based; settings: Homo sapiens
[22] = test system: Escherichia coli; test: microbe, parasite or virus in culture
[23] = cells; assay type: functional
[24] = THP-1 cell cytotoxicity, dose response, cytotoxicity control for non-replicating M. tuberculosis project (AID 489025); assay type: functional
[25] = HepG2 cell cytotoxicity, dose response, cytotoxicity control for non-replicating M. tuberculosis project (AID 489018); assay type: functional; settings: Mycobacterium tuberculosis
[26] = target: Paired box protein Pax-8 (Homo sapiens, UniProt Q06710); test: inhibitors of PAX8-driven TPO luciferase reporter, dose response, RMG-I cells, cherry-pick (AID 687027); assay type: functional, cell-based;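 also: luciferase reporter driven by Pax8 target thyroperoxidase promoter measured by SteadyGlo luminescence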
[27] = test system: Escherichia coli; test: microbe, parasite or virus in culture; remark: listed apart in the source
[28] = Luminescence-based dose response cell-based high throughput screening assay for cytotoxic compounds using the IEC-6 intestinal epithelial cell line. [Related pubchem assays: 1858 (Summary AID.), 1825 (Counterscreen.), 1907 (Confirmation screen.)]; assay type: functional
[29] = Vero E6 cell cytotoxicity, dose response, cytotoxicity control for non-replicating M. tuberculosis project, secondary assay (AID 492998); assay type: functional, VeroE6; settings: Vero C1008

Trypsin, sequence (P00761 whole entry): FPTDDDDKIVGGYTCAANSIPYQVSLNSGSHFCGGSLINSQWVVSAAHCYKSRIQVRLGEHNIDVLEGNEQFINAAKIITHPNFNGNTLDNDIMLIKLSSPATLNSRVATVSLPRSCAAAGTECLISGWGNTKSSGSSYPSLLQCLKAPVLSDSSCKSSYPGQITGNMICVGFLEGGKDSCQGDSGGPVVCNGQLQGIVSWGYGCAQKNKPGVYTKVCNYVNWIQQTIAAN
Mu-type opioid receptor, sequence (P35372 whole entry): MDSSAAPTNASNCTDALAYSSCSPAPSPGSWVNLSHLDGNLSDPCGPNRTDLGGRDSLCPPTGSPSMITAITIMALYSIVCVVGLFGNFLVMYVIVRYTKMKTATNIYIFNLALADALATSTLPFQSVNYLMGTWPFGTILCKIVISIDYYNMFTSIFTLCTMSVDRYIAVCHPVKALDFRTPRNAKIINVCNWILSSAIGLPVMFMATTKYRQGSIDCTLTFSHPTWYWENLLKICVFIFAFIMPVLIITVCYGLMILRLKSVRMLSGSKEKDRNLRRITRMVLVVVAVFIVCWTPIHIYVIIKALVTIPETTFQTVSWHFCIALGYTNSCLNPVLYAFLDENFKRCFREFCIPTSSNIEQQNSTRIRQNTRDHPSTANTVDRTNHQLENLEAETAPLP
Melanocortin receptor 4, sequence (P32245 whole entry): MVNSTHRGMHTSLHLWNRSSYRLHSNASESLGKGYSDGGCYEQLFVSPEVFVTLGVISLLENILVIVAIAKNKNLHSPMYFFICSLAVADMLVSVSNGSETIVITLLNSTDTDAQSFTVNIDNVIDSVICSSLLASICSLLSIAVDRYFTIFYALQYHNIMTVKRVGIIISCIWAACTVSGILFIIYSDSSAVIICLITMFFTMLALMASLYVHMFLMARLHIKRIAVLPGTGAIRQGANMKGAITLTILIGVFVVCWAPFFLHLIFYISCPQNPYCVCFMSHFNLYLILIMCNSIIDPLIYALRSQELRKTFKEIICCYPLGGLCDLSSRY
CAAX prenyl protease 1, sequence (P47154 whole entry): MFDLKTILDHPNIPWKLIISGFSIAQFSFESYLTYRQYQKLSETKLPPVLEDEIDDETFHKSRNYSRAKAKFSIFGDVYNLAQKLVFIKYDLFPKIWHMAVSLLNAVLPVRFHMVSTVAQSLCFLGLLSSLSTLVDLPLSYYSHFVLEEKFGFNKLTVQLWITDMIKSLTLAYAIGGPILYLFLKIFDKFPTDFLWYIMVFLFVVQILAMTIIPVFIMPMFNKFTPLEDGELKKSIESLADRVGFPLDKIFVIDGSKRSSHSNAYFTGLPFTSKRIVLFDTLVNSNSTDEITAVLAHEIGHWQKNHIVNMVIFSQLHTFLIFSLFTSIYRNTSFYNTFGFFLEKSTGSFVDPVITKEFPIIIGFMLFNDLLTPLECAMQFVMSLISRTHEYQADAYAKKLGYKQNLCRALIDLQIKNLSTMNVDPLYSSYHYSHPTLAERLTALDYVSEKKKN
Paired box protein Pax-8, sequence (Q06710 whole entry): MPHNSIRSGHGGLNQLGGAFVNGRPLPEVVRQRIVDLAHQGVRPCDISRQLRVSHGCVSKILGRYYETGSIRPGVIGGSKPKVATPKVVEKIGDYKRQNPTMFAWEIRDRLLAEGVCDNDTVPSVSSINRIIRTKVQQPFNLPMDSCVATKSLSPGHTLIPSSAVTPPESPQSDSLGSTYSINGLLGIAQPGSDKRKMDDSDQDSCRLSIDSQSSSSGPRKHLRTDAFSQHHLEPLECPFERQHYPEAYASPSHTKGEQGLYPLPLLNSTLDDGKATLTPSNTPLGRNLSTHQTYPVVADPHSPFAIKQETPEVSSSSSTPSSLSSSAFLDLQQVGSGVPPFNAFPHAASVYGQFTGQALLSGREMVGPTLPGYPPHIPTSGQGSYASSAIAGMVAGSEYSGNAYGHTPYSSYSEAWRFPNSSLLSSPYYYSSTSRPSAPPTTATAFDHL
5-hydroxytryptamine receptor 5A, sequence (P47898 whole entry): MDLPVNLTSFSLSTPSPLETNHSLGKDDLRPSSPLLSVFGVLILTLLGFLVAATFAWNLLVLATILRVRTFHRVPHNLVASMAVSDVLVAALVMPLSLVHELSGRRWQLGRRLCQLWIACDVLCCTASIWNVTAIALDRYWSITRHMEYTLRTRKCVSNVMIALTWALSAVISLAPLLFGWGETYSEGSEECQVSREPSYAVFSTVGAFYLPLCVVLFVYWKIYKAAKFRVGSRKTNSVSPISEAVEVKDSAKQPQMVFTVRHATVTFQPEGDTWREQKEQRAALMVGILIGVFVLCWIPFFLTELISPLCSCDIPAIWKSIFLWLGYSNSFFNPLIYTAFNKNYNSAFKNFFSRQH
Delta-type opioid receptor, sequence (P41143 whole entry): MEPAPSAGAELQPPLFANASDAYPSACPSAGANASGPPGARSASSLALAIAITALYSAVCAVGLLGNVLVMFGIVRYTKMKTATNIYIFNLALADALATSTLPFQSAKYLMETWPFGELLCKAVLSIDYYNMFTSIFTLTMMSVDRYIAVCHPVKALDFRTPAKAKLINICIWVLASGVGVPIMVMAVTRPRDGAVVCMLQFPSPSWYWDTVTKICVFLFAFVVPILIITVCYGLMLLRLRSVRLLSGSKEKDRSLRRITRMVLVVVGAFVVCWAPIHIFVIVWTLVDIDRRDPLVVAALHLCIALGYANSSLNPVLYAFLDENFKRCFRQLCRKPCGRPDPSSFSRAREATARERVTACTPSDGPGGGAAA
CAAX prenyl protease 2 (Homo sapiens, UniProt Q9Y256), sequence (Q9Y256 whole entry): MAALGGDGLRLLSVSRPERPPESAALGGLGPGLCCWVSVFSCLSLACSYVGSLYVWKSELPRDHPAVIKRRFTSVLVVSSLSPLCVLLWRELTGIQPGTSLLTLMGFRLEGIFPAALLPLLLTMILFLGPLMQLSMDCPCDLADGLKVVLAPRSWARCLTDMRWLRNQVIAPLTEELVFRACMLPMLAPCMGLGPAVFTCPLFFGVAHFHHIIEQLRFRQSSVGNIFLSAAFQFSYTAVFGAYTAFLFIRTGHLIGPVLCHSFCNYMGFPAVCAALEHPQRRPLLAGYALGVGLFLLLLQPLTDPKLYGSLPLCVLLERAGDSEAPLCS
Nonstructural protein 1, sequence (Q194T2 whole entry): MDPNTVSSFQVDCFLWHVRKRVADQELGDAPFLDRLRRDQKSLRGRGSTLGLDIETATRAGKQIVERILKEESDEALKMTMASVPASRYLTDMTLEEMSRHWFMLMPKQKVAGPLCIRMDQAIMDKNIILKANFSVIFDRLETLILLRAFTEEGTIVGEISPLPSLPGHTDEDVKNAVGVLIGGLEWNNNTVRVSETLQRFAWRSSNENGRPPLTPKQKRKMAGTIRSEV

Cc1ccc(Cl)cc1NC(=O)CNCC(c1ccccc1)N(C)C (configuration not stated)
EC50 [1]: > 92.5 µM (inactive) | EC50 [2]: > 92.5 µM (inactive) | EC50 [3]: 0.376 µM (active) | EC50 [4]: > 92.5 µM (inactive)

Cc1nc(NC(=O)c2cccc(-c3cc4ccccc4oc3=O)c2)ccc1Br
AC50 [5]: > 100 µM (inactive) | EC50 [6]: > 99 µM (inactive) | AC50 [7]: 16.6 µM (active) | AC50 [8]: 11.9 µM (active) | EC50 [9]: > 89.2 µM (inactive) | EC50 [10]: > 99 µM (inactive)

CCc1cc(=O)oc2cc(OCC(=O)N3CCC(C(=O)O)CC3)ccc12
AC50 [5]: 31.9 µM (active) | AC50 [11]: 14.3 µM (active)

CCc1ccccc1NC(=O)CSc1nc2nnc(C)c-2c(N)n1-c1cccc(OC)c1
CC50 [12]: 24.4 µM (active) | CC50 [13]: 35.7 µM (active) | IC50 [14]: > 100 µM (active) | IC50 [15]: 7.75 µM (active)

Cc1cc(C)nc(SC2c3cccc4cccc(c34)C2NS(=O)(=O)c2ccccc2)n1 (configuration not stated)
EC50 [16]: > 59.6 µM (inactive) | EC50 [17]: 1.87 µM (active) | EC50 [18]: > 59.6 µM (inactive) | EC50 [19]: 12.8 µM (active)

Cc1csc(NC(=O)Cc2c(F)cccc2Cl)n1
AC50 [20]: > 35 µM (active) | AC50 [21]: > 35 µM (active)

CN1CCc2c(sc(NC(=O)c3ccc([N+](=O)[O-])o3)c2C(N)=O)C1
AC50 [22]: 26.4 µM (active) | IC50 [23]: 17.6 µM (active) | EC50 [17]: 1.26 µM (active) | CC50 [24]: 1.21 µM (active) | CC50 [25]: 2.55 µM (active) | AC50 [26]: 1.67 µM (active) | AC50 [27]: 23.2 µM (active) | EC50 [19]: 3.92 µM (active) | IC50 [28]: 0.879 µM (active) | CC50 [29]: 0.54 µM (active)
